These are literature values, as cited in patent US20100069356A1, “DIBENZO[…] DOPAMINE, ALPHA […], AND SEROTONIN RECEPTORS” (AUSPEX PHARMACEUTICALS, INC., priority 2008, published 2010).

The conditions of this series: in vivo.

`OCCOCCN1CCN(C2=Nc3ccccc3Sc3ccccc32)CC1` [Quetiapine, 2-(2-(4-dibenzo[b,f][1,4]thiazepine-11-yl-1-piperazinyl)ethoxy)ethanol]: the half-life (as a rule, the time needed for the level to fall by half in the phase considered) was approximately 6 h.
